According to PMC9401491, “The Novel Nucleoside Analogue ProTide NUC-7738 Overcomes Cancer Resistance Mechanisms In Vitro and in a First-In-Human Phase I Clinical Trial” (Clinical Cancer Research, 2021):
Like-named read-outs stand apart in the source and are kept apart here.

Columns and labels:
[1] = set-up: method as in PMID 22833171, PMID 24419340; conditions: human serum; cited from earlier work
HAP1 cells = assay: HAP1 viability with ADA, hENT1 or ADK inhibitors; format: cell-based, human; conditions: HAP1, EHNA, NBTI, A134974
Procedure: (§1) Cells (10^4) were seeded into 96-well plates and then treated with NUC-7738 (lot 5132/E00393/119) or 3′-dA (cordycepin, catalog no. C3394, lot 067M4182, Sigma) for 48 hours. One and a half milligrams per milliliter MTT (catalog no. M6494, Invitrogen) in a 1:1 ratio was added to cell culture media. After a 2-hour incubation at 37°C, media was removed and 70 μl of isopropanol was added. Optical densities at 570 nm were measured using POLARstar Omega plate reader. Readouts were normalized and IC50 values were calculated using a nonlinear regression model in Graphpad prism (v8.3.0). Each biological replicate (at least 3) was performed in 4 technical replicates to calculate the average IC50 value. To measure apoptosis, the Guava NexinReagent (Luminex Corp.) was used following manufacturer's instructions. Fluorescence staining was measured with an automated 96-well Guava easyCyte Flow Cytometer (Luminex Corp.).
To assess whether NUC-7738 was resistant to ADA and could bypass ADK and hENT1 (SLC29A1), cell viability was measured after treatment with their specific and corresponding protein inhibitors: erythro-9-(2-Hydroxy-3-nonyl) adenine hydrochloride (EHNA), A134974, and S-(4-nitrobenzyl)-6-thioinosine (NBTI), respectively ([16, 17, 34, 35]).

AGS = assay: MTT cell viability, AGS; format: cell-based; conditions: Homo sapiens, 48 h
Procedure: as §1

[2] = NuTide:701 first-in-human phase I study; format: in vivo
Procedure: A Safety Study of NUC-7738 in Patients with Advanced Solid Tumours or Lymphoma, ClinicalTrials number: NCT03829254. Approved by Oxford C Ethics Committee ref 18/SC/0628.
This study is currently ongoing at three centers in the United Kingdom: Edinburgh, Newcastle, and Oxford. As of June 1, 2021, 28 patients with advanced cancers have been enrolled and received escalating doses of 14–900 mg/m^2 (intravenous infusion from 30–120 minutes) once weekly until dose-limiting toxicity or disease progression occurs. Intrapatient dose escalation ensures those starting at lower dose levels of NUC-7738 are continuously moved to higher doses once safety has been established. The most common cancers to be included are immunotherapy-resistant melanoma (n = 8), colorectal cancer (n = 3), and gastric and lung cancer (n = 2 each). […] A posttreatment biopsy was taken from a patient with melanoma and compared with their archived specimen collected prior to enrolling in the clinical trial. […] Transcriptional profiling of the specimens using RNA-seq identified more than 1,069 genes which were at least 2-fold differentially expressed after treatment with NUC-7738 (Fig. 6C and Supplementary Fig. S6A–C).

cancer cell lines = assay: IC50 across a wide set of cancer cell lines; format: cell-based
Procedure: as §1

[3] = set-up: method as in PMID 22833171, PMID 24419340; conditions: rat serum; cited from earlier work
HINT1 KO HAP1 cells = assay: Sensitivity of HINT1 CRISPR/Cas9 knockout HAP1 cells; format: cell-based, human; conditions: HAP1 polyclonal and clonal HINT1 KO vs WT
Procedure: Cells were transfected with stealth siRNA (catalog no. HSS104782, catalog no. HSS104784, catalog no. HSS179235; ThermoFisher) targeting HINT-1 using Lipofectamine RNAiMAX (Invitrogen) following the manufacturer's protocol. At 48 hours posttransfection, cells were treated and cell viability was measured 96 hours posttransfection as described above. Samples for Western blot analysis were harvested 48 hours posttransfection. For gene-depletion experiments, approximately 4 × 10^5 HAP1 cells were seeded per well in a 6-well plate and grown to approximately 50% confluency. After 24 hours, cells were transfected with lentiCRISPR v2 plasmid (GenScript) containing a guide RNA (gRNA) targeting gene of interest using Turbofectin (catalog no. TF81001, OriGene) according to manufacturer's instruction. The following sequences were used: HINT-1 CRISPR gRNA 2 ([…]) and NUDT2 CRISPR gRNA 2 ([…]). At 24 hours posttransfection, positively transfected cells were selected using […] puromycin for 72 hours. After selection, surviving colonies were expanded and used for downstream analysis. For clonal selection, clones were selected using limited dilution and expanded into a 6-well plate for Western blot screening.
HAP1 cells were seeded at a density of 10,000 cells per well in 6-well plates and indicated drug concentrations were added. […]

[4] = system: Gastric or cervical cancer cells; assay: Apoptosis by cleaved PARP Western blot; format: cell-based; conditions: 50 and 100 μmol/L, 24 hours
Procedure: as §1
Cells were harvested and lyzed using RIPA lysis and extraction buffer (Thermo Scientific) following manufacturer's protocol. Twenty to 30 μg of total protein lysates was loaded on Mini-PROTEAN TGX precast gels (Bio-Rad). Separated proteins were transferred to a polyvinylidene difluoride (PVDF) membrane using Trans-Blot Turbo Transfer System (Bio-Rad) followed by incubation with primary and horseradish peroxidase (HRP)–conjugated secondary antibodies [anti-mouse, catalog no. […]

Tera-1 = assay: MTT cell viability, Tera-1; format: cell-based
Procedure: as §1

[5] = set-up: method as in earlier work; conditions: patients, particularly immunotherapy-resistant melanoma; cited from earlier work
UO-31 = assay: MTT cell viability, UO-31; format: cell-based; conditions: Homo sapiens, UO-31, 48 h
Procedure: as §1

UM-RC-2 = assay: IC50 in renal cancer cell line UM-RC-2; format: cell-based; conditions: UMRC2

C[C@H](NP(=O)(OC[C@@H]1C[C@@H](O)[C@H](n2cnc3c(N)ncnc32)O1)Oc1ccccc1)C(=O)OCc1ccccc1 (stereo partly drawn) [NUC-7738, 3′-deoxyadenosine-5′-O-phenyl-(benzyloxy-L-alaninyl)-phosphate]
half-life in serum [1]: 424 min
potency upon inhibition of ADA, hENT1 or ADK (HAP1 cells): mostly unaffected
IC50 (AGS): 11.2 µM
tolerability ([2]; patients with advanced cancers, 14–900 mg/m^2 iv once weekly): well tolerated with no dose-limiting toxicities reported
plasma PK profile ([2]; patients, escalating doses): dose-proportional increase in Cmax and AUC
IC50 (cancer cell lines; read-out: IC50 in the low μM range): < 10 µM
IC50 (cancer cell lines; read-out: mean IC50): 18.8 µM
half-life in serum [3]: less than 2 minutes
sensitivity after depletion of HINT1 (HINT1 KO HAP1 cells): markedly reduced sensitivity
apoptotic cell death, cleaved PARP-1 [4]: induced apoptotic cell death
IC50 (Tera-1; 48 h): 4.36 µM
sensitivity to NUC-7738 compared with 3′-dA (Tera-1; Tera-1 teratocarcinoma): more than 40 fold
antitumor activity [5]: Encouraging signals of antitumor activity and prolonged disease stabilization
IC50 (UO-31): 42.2 µM
IC50 (UM-RC-2): 4 µM
